Entries after “also recorded” stand apart in the source; their conditions may differ.

For assay [1], the system named is purine auxotrophic yeast (ade2Δ, fui1Δ). In words: 5-Fluorouridine (5-FUrd) toxicity assay. It counts as cell-based. The conditions noted are these: ade2Δ strain; 500 μM adenine plus 125 μM 5-FUrd; OD600 at 24 h. The protocol:
(§1) 5-FUrd toxicity was measured in a subset of the PfENT1 mutants. Mutants were grown overnight in SDM with 1 mM adenine. Meanwhile, purine auxotrophic yeast were grown in YPD overnight. Yeast strains were spun down and resuspended in sterile water then added to the honeycomb plates with SDM media with NP40 (final concentration of 0.1%) containing either no adenine, 500 μM adenine, or 500 μM adenine plus 125 μM 5-FUrd (Fisher Scientific Cat. #AAJ6208303) with an initial OD600 = 0.05 and a final volume of 150 μL. Typically, 10 μL of yeast (final concentration of resuspended yeast OD600 = around 0.8) were added to 140 μL of media. Each trial contained triplicates. The 100-well honeycomb plate was placed in the Bioscreen C for 24-h under continuous high shaking at 30°C. The endpoint OD600 was measured at 24 h. Each experiment was repeated at least three times on separate days.

Assay [2] has as its system yeast expressing WT PfENT1. In words: 5-Fluorouridine (5-FUrd) toxicity assay. Conditions: 500 μM adenine plus 125 μM 5-FUrd, OD600 at 24 h. It is filed as cell-based. The protocol: as §1
Assay [3] deals with yeast expressing F286C PfENT1. The assay can be described thus: 5-Fluorouridine (5-FUrd) toxicity assay. It counts as cell-based. The conditions noted are these: 500 μM adenine plus 125 μM 5-FUrd, OD600 at 24 h. The protocol:
as §1

Assay [4] concerns yeast expressing S290C PfENT1. The assay can be described thus: 5-Fluorouridine (5-FUrd) toxicity assay. It counts as cell-based. Conditions: 500 μM adenine plus 125 μM 5-FUrd, OD600 at 24 h. The protocol:
as §1

Assay [5] deals with yeast expressing Q135C PfENT1. The assay can be described thus: 5-Fluorouridine (5-FUrd) toxicity assay. It is filed as cell-based. Conditions: 500 μM adenine plus 125 μM 5-FUrd, OD600 at 24 h. The procedure: as §1
For assay [6], the system named is yeast expressing D287C PfENT1. The assay can be described thus: 5-Fluorouridine (5-FUrd) toxicity assay. It is filed as cell-based. Conditions: 500 μM adenine plus 125 μM 5-FUrd, OD600 at 24 h. The protocol: as §1
Assay [7] deals with yeast expressing W53C PfENT1. In words: 5-Fluorouridine (5-FUrd) toxicity assay. It counts as cell-based. Conditions: 500 μM adenine plus 125 μM 5-FUrd, OD600 at 24 h. The protocol: as §1
Assay [8] deals with yeast expressing R291C PfENT1. In words: 5-Fluorouridine (5-FUrd) toxicity assay. It is filed as cell-based. Conditions: 500 μM adenine plus 125 μM 5-FUrd, OD600 at 24 h. The protocol: as §1
Assay [9] has as its system yeast expressing N51C PfENT1. In words: 5-Fluorouridine (5-FUrd) toxicity assay. Conditions: 500 μM adenine plus 125 μM 5-FUrd, OD600 at 24 h. It is filed as cell-based. The procedure: as §1
The subject of assay [10] is yeast expressing L50C PfENT1. In words: 5-Fluorouridine (5-FUrd) toxicity assay. It counts as cell-based. Conditions: 500 μM adenine plus 125 μM 5-FUrd, OD600 at 24 h. The procedure: as §1
Assay [11] has as its system PfENT1 W53A. The conditions noted are these: yeast expressing W53A, Y190A background; cited from earlier work.
For assay [12], the system named is PfENT1 D287A. Conditions: yeast expressing D287A, Y190A background; cited from earlier work.
Assay [13] concerns PfENT1 Q135A. The conditions noted are these: cited from earlier work.
The subject of assay [14] is PfENT1 R291A. Conditions: yeast expressing R291A, Y190A background; cited from earlier work.
The test system of assay [15] is PfENT1 W53A. Conditions: cited from earlier work.
Another assay has as its system PfENT1 S49A. The conditions noted are these: cited from earlier work.
Assay [16] relates to PfENT1 R291A. Conditions: cited from earlier work.
Assay [17] has as its system PfENT1 D287A. Conditions: cited from earlier work.
Assay [18] has as its system PfENT1 Q135A. Conditions: yeast expressing Q135A, Y190A background; cited from earlier work.

In the case of `O=c1[nH]c(=O)n([C@@H]2O[C@H](CO)[C@@H](O)[C@H]2O)cc1F` [5-FUrd, 5-Fluorouridine], the 5-FUrd assay result in [1] was “growth-non-functional”; in [2], “did not grow; also recorded: killed-functional”; in assay [3], “did not grow; also recorded: killed-functional”; in [4], “did grow; also recorded: growth-non-functional*”; in [5], “did grow; also recorded: growth-non-functional*”; in assay [6], “did grow; also recorded: growth-non-functional*”. Further, the 5-FUrd assay result is listed as “did grow; also recorded: growth-non-functional*” in [7], “did grow; also recorded: growth-non-functional*” in assay [8], “did not grow; also recorded: killed-functional” in assay [9] and “did not grow; also recorded: killed-functional” in assay [10].
For `O=c1[nH]cnc2c1ncn2[C@@H]1O[C@H](CO)[C@@H](O)[C@H]1O` [inosine], the “uptake of radioactive inosine” value in the assay with PfENT1 W53A [11], with PfENT1 D287A [12], with PfENT1 R291A [14] and with PfENT1 Q135A [18] was “did not show uptake” each time. Also, the “inosine binding by ITC” value with PfENT1 Q135A [13] is “did not bind”; in the assay on PfENT1 W53A [15], “bound with lower affinity”; with PfENT1 S49A it was “did not bind”; in the assay on PfENT1 R291A [16], “bound with lower affinity”; in the assay with PfENT1 D287A [17] it was “did not bind”.

(Values after paper PMC10729961, “Putative purine nucleoside interacting residues in the malaria parasite purine uptake transporter PfENT1 are critical for transporter function” (PLOS ONE, 2023).)
